Read-outs that look alike come from different tables or passages of the source. Values belong to the compound of their own block, whether it stands above or below them.
Assays:
CT26 cells = assay: CT26 cell viability; assay type: cell-based
MV4;11 cells = assay: Cell line drug sensitivity (CellTiter-Glo); assay type: cell-based; details: Homo sapiens, MV4-11, 48 h
NB4 cells = assay: Cell line drug sensitivity (CellTiter-Glo); assay type: cell-based; details: Homo sapiens, NB-4, 48 h
DAOY cells = assay: Cell line drug sensitivity (CellTiter-Glo); assay type: cell-based; details: 48 h
Description: (§1) SET-2, RS4;11, and SKM-1 cells were purchased from DSMZ. HL-60, MV4;11, OCI-AML2, NB4, MOLM-13, NOMO-1, DAOY, HEL, IMR-5, K562, Kasumi-1, ONS-76, RDES-1, and TC-71 cells were a gift from Alex Kentsis and verified using STR genotyping (Genetica). […] MCF-7, Jurkat, THP-1, U937, HL-60, MV4;11, OCI-AML2, NB4, MOLM-13, NOMO-1, HEL, K562, SET-2, RS4;11, SKM-1 and Kasumi-1 were grown in RPMI-1640 medium with 10% FBS. All cells were grown at 37° C. in a 5% CO2 incubator. Cell lines were tested for mycoplasma using the MycoAlert Mycoplasma Detection Kit (Lonza).
(§2) Cells were plated (2000 cells/well) in white, 384-well clear bottom plates using an EL406 Microplate Washer/Dispenser (BioTek) in 25 μL final volume of media. Compounds were added using a pintool (CyBio) and cells were incubated for 48 h at 37° C. Assay plates were then removed from the incubator and allowed to equilibrate to room temperature on the bench top before addition of 10 μL of CellTiter-Glo reagent (Promega) according to the manufacturer's instructions. Assay plates were shaken on an orbital shaker for 2 minutes and incubated at room temperature on the bench top for 10 minutes. Luminescence was then read using a Cytation 5 Cell Imaging Multi-Mode Reader (BioTek). (FIG. 6)

HEL cells = assay: Cell line drug sensitivity (CellTiter-Glo); assay type: cell-based
Description: as §1, §2

HL-60 cells = assay: Cell line drug sensitivity (CellTiter-Glo); assay type: cell-based
Description: as §1, §2

HT-1080 cells = assay: Cell line drug sensitivity (CellTiter-Glo); assay type: cell-based
Description: as §1, §2

IMR-5 cells = assay: Cell line drug sensitivity (CellTiter-Glo); assay type: cell-based
Description: as §1, §2

Jurkat cells = assay: Cell line drug sensitivity (CellTiter-Glo); assay type: cell-based; details: 48 h
Description: as §1, §2

K562 cells = assay: Cell line drug sensitivity (CellTiter-Glo); assay type: cell-based
Description: as §1, §2

KG-1 cells = assay: Cell line drug sensitivity (CellTiter-Glo); assay type: cell-based
Description: as §1, §2

Kasumi-1 cells = assay: Cell line drug sensitivity (CellTiter-Glo); assay type: cell-based
Description: as §1, §2

MCF7 cells = assay: Cell line drug sensitivity (CellTiter-Glo); assay type: cell-based
Description: as §1, §2

MOLM-13 cells = assay: Cell line drug sensitivity (CellTiter-Glo); assay type: cell-based
Description: as §1, §2

NOMO-1 cells = assay: Cell line drug sensitivity (CellTiter-Glo); assay type: cell-based
Description: as §1, §2

OCI-AML3 cells = assay: Cell line drug sensitivity (CellTiter-Glo); assay type: cell-based
Description: as §1, §2

ONS-76 cells = assay: Cell line drug sensitivity (CellTiter-Glo); assay type: cell-based
Description: as §1, §2

RDES-1 cells = assay: Cell line drug sensitivity (CellTiter-Glo); assay type: cell-based; details: 48 h
Description: as §1, §2

SET-2 cells = assay: Cell line drug sensitivity (CellTiter-Glo); assay type: cell-based
Description: as §1, §2

SKM-1 cells = assay: Cell line drug sensitivity (CellTiter-Glo); assay type: cell-based
Description: as §1, §2

TC-71 cells = assay: Cell line drug sensitivity (CellTiter-Glo); assay type: cell-based
Description: as §1, §2

THP-1 cells = assay: Cell line drug sensitivity (CellTiter-Glo); assay type: cell-based
Description: as §1, §2

U937 cells = assay: Cell line drug sensitivity (CellTiter-Glo); assay type: cell-based
Description: as §1, §2

RS4;11 cells = assay: Cell line drug sensitivity (CellTiter-Glo); assay type: cell-based
AML cell lines = assay: AML cell line sensitivity, summary over the panel; assay type: cell-based; details: all of these lines
Description: as §1, §2

MB49 tumor = assay: MB49 efficacy studies; assay type: in vivo, C57BL/6 mice
PGE2 = assay: Peritoneal PGE2 levels after dosing; assay type: in vivo; details: even at substantially higher doses than Val-boroPro
[1] = MTD (survival) of ARI-4268; assay type: in vivo; details: without PGE2 inhibitor, compared with Val-boroPro
[2] = in comparison to Val-boroPro
G-CSF = assay: Serum cytokine induction in mice (G-CSF screen); assay type: in vivo, BALB/c mice
From the text: No. MKC00B) • IL-18 (R&D Systems, Cat. […] Systems, Cat. No. […])

rhabdomyosarcoma = details: established rhabdomyosarcoma, preclinical; cited from earlier work

SMILES: CC1([C@H](N)C(=O)N2CCC[C@H]2B(O)O)CCCCC1 (relative stereo) [ARI-4175CH]
EC50 (CT26 cells; Mus musculus, CT26): > 1000 µM
IC50 (MV4;11 cells): 0.003 µM
IC50 (NB4 cells): 0.003 µM
IC50 (DAOY cells; Homo sapiens, Daoy): > 60 µM
IC50 (HEL cells; Homo sapiens, 48 h): > 60 µM
IC50 (HL-60 cells; Homo sapiens, HL-60, 48 h): 0.003 µM
IC50 (HT-1080 cells; Homo sapiens, HT-1080, 48 h): > 60 µM
IC50 (IMR-5 cells; Homo sapiens, IMR-5, 48 h): > 60 µM
IC50 (Jurkat cells; Homo sapiens): > 60 µM
IC50 (K562 cells; Homo sapiens, K562, 48 h): > 60 µM
IC50 (KG-1 cells; Homo sapiens, KG-1, 48 h): 0.049 µM
IC50 (Kasumi-1 cells; Homo sapiens, Kasumi 1, 48 h): > 60 µM
IC50 (MCF7 cells; Homo sapiens, MCF7, 48 h): > 60 µM
IC50 (MOLM-13 cells; Homo sapiens, MOLM-13, 48 h): 0.006 µM
IC50 (NOMO-1 cells; Homo sapiens, NOMO-1, 48 h): 0.004 µM
IC50 (OCI-AML3 cells; Homo sapiens, OCI-AML-3, 48 h): 0.003 µM
IC50 (ONS-76 cells; Homo sapiens, ONS-76, 48 h): > 60 µM
IC50 (RDES-1 cells): > 60 µM
IC50 (SET-2 cells; Homo sapiens, SET-2, 48 h): 0.001 µM
IC50 (SKM-1 cells; Homo sapiens, SKM-1, 48 h): 0.001 µM
IC50 (TC-71 cells; TC-71, 48 h): > 60 µM
IC50 (THP-1 cells; Homo sapiens, THP-1, 48 h): 0.006 µM
IC50 (U937 cells; Homo sapiens, U-937, 48 h): > 60 µM
IC50 (RS4;11 cells; Homo sapiens, RS4-11, 48 h): 0.013 µM
IC50 values over the sensitive AML cell lines (AML cell lines): low (single digit) nanomolar

SMILES: CC(C)(F)[C@H](N)C(=O)N1CCC[C@H]1B(O)O (relative stereo) [ARI-4268]
Antitumor activity (MB49 tumor; MB49 model, truncated dosing schedules): displays antitumor activity in the MB49 mouse tumor model at doses indicating improved therapeutic index
Peritoneal PGE2 levels (PGE2): does not induce peritoneal PGE2 levels to the same extent as Val-boroPro
MTD (survival) [1]: dramatically increased MTD (survival) without the need for a PGE2 inhibitor
Oral activity [2]: good oral activity—on par with highly orally active Val-boroPro

SMILES: N[C@H](C(=O)N1CCC[C@H]1B(O)O)C12CC3CC(CC(C3)C1)C2 (relative stereo) [ARI-5544, Gly(1-adamantyl)-boroPro]
EC50 (CT26 cells; Mus musculus, CT26): > 100 µM
IC50 (MV4;11 cells): 0.002 µM
IC50 (NB4 cells): 0.003 µM
IC50 (DAOY cells; Homo sapiens, Daoy): > 60 µM
IC50 (HEL cells; Homo sapiens, 48 h): > 60 µM
IC50 (HL-60 cells; Homo sapiens, HL-60, 48 h): 0.003 µM
IC50 (HT-1080 cells; Homo sapiens, HT-1080, 48 h): > 60 µM
IC50 (IMR-5 cells; Homo sapiens, IMR-5, 48 h): > 60 µM
IC50 (Jurkat cells; Homo sapiens): > 60 µM
IC50 (K562 cells; Homo sapiens, K562, 48 h): > 60 µM
IC50 (KG-1 cells; Homo sapiens, KG-1, 48 h): 0.005 µM
IC50 (Kasumi-1 cells; Homo sapiens, Kasumi 1, 48 h): > 60 µM
IC50 (MCF7 cells; Homo sapiens, MCF7, 48 h): > 60 µM
IC50 (MOLM-13 cells; Homo sapiens, MOLM-13, 48 h): 0.005 µM
IC50 (NOMO-1 cells; Homo sapiens, NOMO-1, 48 h): 0.005 µM
IC50 (OCI-AML3 cells; Homo sapiens, OCI-AML-3, 48 h): 0.002 µM
IC50 (ONS-76 cells; Homo sapiens, ONS-76, 48 h): > 60 µM
IC50 (RDES-1 cells): > 60 µM
IC50 (SET-2 cells; Homo sapiens, SET-2, 48 h): 0.0002 µM
IC50 (SKM-1 cells; Homo sapiens, SKM-1, 48 h): 0.0004 µM
IC50 (TC-71 cells; TC-71, 48 h): > 60 µM
IC50 (THP-1 cells; Homo sapiens, THP-1, 48 h): 0.005 µM
IC50 (U937 cells; Homo sapiens, U-937, 48 h): > 60 µM
IC50 values over the sensitive AML cell lines (AML cell lines): low (single digit) nanomolar

EC50 (CT26 cells): > 1000 µM
SMILES: C[C@H](N)C(=S)N1CCC[C@H]1B(O)O [ARI-2243]
Average [G-CSF] at 6 hrs (G-CSF; 20 μg/animal PO): 330 pg/mL
Average [G-CSF] at 6 hrs (G-CSF; 50 μg/animal IP): 2100 pg/mL
Average [G-CSF] at 6 hrs (G-CSF; 100 μg/animal IP): 2400 pg/mL
Average [G-CSF] at 6 hrs (G-CSF; 300 μg/animal IP): 4400 pg/mL

EC50 (CT26 cells): > 1000 µM
IC50 (HL-60 cells; HL-60, AML M2, 48 h, read-out: IC50): 0.016 µM
IC50 (HT-1080 cells; HT-1080, Fibrosarcoma, 48 h, read-out: IC50): > 60 µM
IC50 (Jurkat cells; T-ALL, read-out: IC50): > 60 µM
IC50 (K562 cells; K562, CML/Erythroleukemia, 48 h, read-out: IC50): > 60 µM
IC50 (MCF7 cells; MCF7, Breast, 48 h, read-out: IC50): > 60 µM
IC50 (MOLM-13 cells; MOLM-13, AML M5, 48 h, read-out: IC50): 0.028 µM
IC50 (OCI-AML3 cells; OCI-AML3, AML M4, 48 h, read-out: IC50): 0.019 µM
IC50 (SKM-1 cells; SKM-1, AML M5, 48 h, read-out: IC50): 0.007 µM
IC50 (THP-1 cells; THP-1, AML M5, 48 h, read-out: IC50): 0.023 µM
IC50 (U937 cells; U937, AML/histiocytic lymphoma M5, 48 h, read-out: IC50): > 60 µM
IC50 (RS4;11 cells; RS4;11, AML/B-ALL, 48 h, read-out: IC50): 0.096 µM
SMILES: CC(C)(C)[C@H](N)C(=O)N1CCC[C@H]1B(O)O [ARI-4175, t-butylglycine-boroProline]
Average [G-CSF] at 6 hrs (G-CSF; 20 μg/animal PO): 19000 pg/mL
Average [G-CSF] at 6 hrs (G-CSF; 20 μg/animal SC): 65000 pg/mL
IC50 (DAOY cells; DAOY, Medulloblastoma, read-out: IC50): > 60 µM
IC50 (HEL cells; AML/Erythroleukemis M6, 48 h, read-out: IC50): > 60 µM
IC50 (IMR-5 cells; IMR-5, Neuroblastoma, 48 h, read-out: IC50): > 60 µM
IC50 (KG-1 cells; KG-1, AML M0, 48 h, read-out: IC50): 0.035 µM
IC50 (Kasumi-1 cells; Kasumi-1, AML M2, 48 h, read-out: IC50): > 60 µM
IC50 (NOMO-1 cells; NOMO-1, AML M5, 48 h, read-out: IC50): 0.03 µM
IC50 (ONS-76 cells; ONS-76, Medulloblastoma, 48 h, read-out: IC50): > 60 µM
IC50 (RDES-1 cells; RDES-1, Ewing's sarcoma, read-out: IC50): > 60 µM
IC50 (SET-2 cells; SET-2, AML/MPN, 48 h, read-out: IC50): 0.002 µM
IC50 (TC-71 cells; TC-71, Ewing's sarcoma, 48 h, read-out: IC50): > 60 µM
Anti-tumor activity (rhabdomyosarcoma): significant immune-dependent anti-tumor activity

EC50 (CT26 cells): > 1000 µM
SMILES: NC(N)=NCCC[C@H](N)C(=O)N1CCC[C@H]1B(O)O [Arg-boroPro]

EC50 (CT26 cells; Mus musculus, CT26): 0.036 µM
SMILES: CC(C)C[C@H](NC(=O)[C@H](Cc1ccccc1)NC(=O)c1cnccn1)B(O)O [Bortezomib]

EC50 (CT26 cells): > 1000 µM
SMILES: N[C@@H](CCC(=O)O)C(=O)N1CCC[C@H]1B(O)O [Glu-boroPro]
Average [G-CSF] at 6 hrs (G-CSF; 20 μg/animal PO): 340 pg/mL
Average [G-CSF] at 6 hrs (G-CSF; 200 μg/animal PO): 160 pg/mL
Average [G-CSF] at 6 hrs (G-CSF; 200 μg/animal SC): 210 pg/mL
Average [G-CSF] at 6 hrs (G-CSF; 2000 μg/animal PO): 2300 pg/mL
Average [G-CSF] at 6 hrs (G-CSF; 2000 μg/animal SC): 16000 pg/mL

SMILES: N[C@@H](CC(=O)N1CCn2c(nnc2C(F)(F)F)C1)Cc1cc(F)c(F)cc1F [Sitagiptin, Sitagliptin]
Average [G-CSF] at 6 hrs (G-CSF; 200 μg/animal SC): 100 pg/mL
Average [G-CSF] at 6 hrs (G-CSF; 1000 μg/animal PO): 340 pg/mL
Average [G-CSF] at 6 hrs (G-CSF; 2000 μg/animal SC): 950 pg/mL

SMILES: Cc1ccc(-c2cc(C(F)(F)F)nn2-c2ccc(S(N)(=O)=O)cc2)cc1 [celecoxib]
Tumor growth rate (MB49 tumor; celecoxib alone, various concentrations): no observed differences in tumor growth rates compared to control

Reference: patent publication US11583516B2, “Dash inhibitors, and uses related thereto” (Trustees of Tufts College, priority 2016, dated 2023)
